According to patent publication US20010035503A1, “Method and apparatus for non-invasive detection of angiogenic and anti-angiogenic activity in living tissue” (priority 2000, published 2001):

Tests used:
[1] = test system: C3H murine mammary carcinoma; assay: anti-vascular effects by combined LDF and NIRS measurements in mice with tumor transplants; assay type: in vivo; settings: for LDF: difference between post- and pre-treatment as percent of pre-treatment value; for LDF / NIRS* / pO2 after treatment % < 5 mm Hg: median, N = 3; for LDF / NIRS* / pO2 after treatment median / pO2 after treatment % < 5 mm Hg: i.p.: FAA 150, CA4B 250, DMX-AA 20, HDZ 5 mg/kg; for tumor blood perfusion estimated by LDF / hemoglobin concentration: in words; for hemoglobin concentration: from NIRS; for NIRS*: reflectance (1/absorbance), increase = decrease in hemoglobin concentration, post- minus pre-treatment as percent of pre-treatment; for pO2 after treatment median: tumor pO2, N = 3; for pO2 after treatment % < 5 mm Hg: tumor pO2 values below 5 mm Hg
Protocol: Anti-vascular effects on C3H murine mammary carcinoma were determined by combined LDF and NIRS measurements, in mice with tumor transplants using the apparatus shown in FIG. 9.
The three agents DMX-AA, FAA and CA4B are antivascular agents, which by various mechanisms cause collapse of tumor vasculature and consequently a decrease in tumor blood flow and oxygenation. Hydralazine (HDZ) is a well known anti-hypertensive agent that causes peripheral vasodilatation, i.e. a drop in vascular flow resistance leading to an acute decrease in tumor perfusion (a.k.a. the “steal effect”), because of the lack of autoregulation of tumor vessels. Numbers in the table represent differences between post-and pre-treatment measurements expressed as percent of the pre-treatment value. Number of experiments per drug=3.

U87 and MLL tumor lines = assay: tumor growth, NIRS recordings and Chalkley counts during continuous anti-angiogenic treatment; assay type: in vivo, nude mice
Excerpt: The relationship between non-invasive measures of tumor hemoglobin concentration by NIRS and estimates of vessel density by Chalkley counts was examined in seven tumor lines (gliomas: U87, U118, U373; Small Cell Lung Cancer (SCLC): 54A, 54B, DMS79; rat prostate cancer: MLL) on the hind leg of nude mice. Chalkley counts were obtained from CD31 immunostained cryosections. The NIRS absorbance increased with the tumor size until a tumor line specific plateau was reached from tumor sizes of 100-150 mm^3.
We also evaluated the correlation between tumor size and NIRS recordings during untreated growth for all seven tumor lines, and during continuous anti-angiogenic treatment with TNP-470 for two tumor lines, U87 and MLL.

[2] = test system: bFGF induced angiogenic response; assay: anti-angiogenic activity in bFGF stimulated animals, LDF and NIRS recordings; assay type: in vivo, mouse
Protocol: (§1) The apparatus as shown on FIG. 9 was tested in a mouse model with a controlled angiogenic response induced by local application of an angiogenic agent, basic fibroblast growth factor (bFGF). Parallel experiments were performed with identical setup in order to correlate the sensitivity of near infrared spectroscopy (NIRS) compared to laser doppler flowmetry (LDF) for estimation of angiogenic and anti-angiogenic responses.
(§2) A slow release pellet (Innovative Res.) containing 100 micrograms of bFGF released at a constant rate over 10 days was implanted under the skin at three different locations in the mouse. The angiogenic response to the active substance was evaluated in comparison with placebo pellets. […] Median values and interquartile range is shown.
The ability to detect anti-angiogenic properties of therapeutic agents in these preparations was tested in the same technical settings by comparing treated versus untreated animals.
FIGS. 3A and 3B show the anti-angiogenic activity after treatment with TNP-470 (7 mg/kg q.d.x7, n=13). […] LDF recordings were performed on day 6, whereas NIRS recordings were performed on day 7 after implantation. Median values and interquartile range is shown.

angiogenic response = angiogenic response to bFGF slow release pellet implanted under the skin, LDF and NIRS recordings; assay type: in vivo, mouse; settings: pellet with 100 micrograms bFGF vs placebo pellets, p<0.05 vs placebo, p<0.001 vs controls
Protocol: as §1, §2

[3] = treated vs untreated tumors of similar size, U87 and MLL

Compound	LDF [1] [%]	tumor blood perfusion estimated by LDF [1]	hemoglobin concentration [1]	NIRS* [1]	pO2 after treatment median [1]	pO2 after treatment % < 5 mm Hg [1] [%]	also measured
Cc1ccc2c(=O)c3cccc(CC(=O)O)c3oc2c1C [DMX-AA]	−74	decrease in perfusion	unchanged hemoglobin concentration	+1%	2.8	66	–
O=C(O)Cc1cccc2c(=O)cc(-c3ccccc3)oc12 [FAA]	−34	decrease in perfusion	unchanged hemoglobin concentration	+6%	1.5	69	–
NNc1nncc2ccccc12 [HDZ, Hydralazine]	−93	–	–	+36%	1.9	85	–
CO[C@@H]1[C@H](OC(=O)NC(=O)CCl)CC[C@]2(CO2)[C@H]1[C@@]1(C)O[C@@H]1CC=C(C)C [TNP-470]	–	–	–	–	–	–	onset of tumor growth and the growth rate (U87 and MLL tumor lines; continuous treatment, U87 and MLL tumors): significantly retarded; Chalkley counts (U87 and MLL tumor lines; [3]): significantly lower; final NIRS recordings (U87 and MLL tumor lines; [3]): significantly lower; LDF recordings ([2]; compared to untreated bFGF stimulated animals, day 6, TNP-470 7 mg/kg q.d.x7 (p<0.05), dexamethasone 10 mg/kg q.d.x7 (p<0.001)): significantly lower; NIRS recordings ([2]; compared to untreated bFGF stimulated animals, day 7, TNP-470 7 mg/kg q.d.x7 (p<0.05), dexamethasone 10 mg/kg q.d.x7 (p<0.001)): significantly lower; anti-angiogenic activity ([2]; treated versus untreated animals): Significant anti-angiogenic activity
basic fibroblast growth factor [bFGF]	–	–	–	–	–	–	LDF recordings (angiogenic response; day 6 after implantation): significantly higher than placebo; NIRS recordings (angiogenic response; day 7 after implantation): significantly higher than placebo
